Measurements published in ChEMBL document CHEMBL4483862, “Open-source discovery of chemical leads for next-generation chemoprotective antimalarials” (2018).

Tested on: Plasmodium berghei
Assay: Luciferase/luciferin-expressing antifolate-resistant parasites were used to infect a culture of HepG2 cells that were pre-incubated with compounds. Infected hepatocytes emit light due to the luciferase reaction. Assay results are presented as the percent inhibition of light emission compared to control. […]
Assay type: functional
Conditions: sporozoite; for IC90: read-out: LUCIFERASE INFECTION ASSAY - IC90

| Compound | IC90 | other results |
| --- | --- | --- |
| O=C(Nc1ccccc1Cc1ccccc1)c1ccccc1NS(=O)(=O)c1ccc(Cl)s1 | 3.48 µM | IC50 (FFLUC_HILL_SLOPE 7.32, FFLUC_R_SQUARED 0.665, HEPG2TOX_HILL_SLOPE 2.07, HEPG2TOX_R_SQUARED 0.984, PBLUC_HILL_SLOPE 54.5, PBLUC_R_SQUARED 0.445, read-out: LUCIFERASE INFECTION ASSAY - IC50): 3.34 µM |
| O=C(c1cccc(C(F)(F)F)c1)N1CCc2c([nH]c3ccccc23)C1C(F)(F)F (configuration not stated) | > 8 µM | IC50 (FFLUC_HILL_SLOPE 6.83, FFLUC_R_SQUARED 0.392, HEPG2TOX_HILL_SLOPE 7.06, HEPG2TOX_R_SQUARED 0.861, PBLUC_HILL_SLOPE 3.46, PBLUC_R_SQUARED 0.38, read-out: LUCIFERASE INFECTION ASSAY - IC50): 4.59 µM |
| c1ccc(-c2nc(-c3ccccc3)c(-c3ccccc3)o2)cc1 | > 11.1 µM | IC50 (FFLUC_HILL_SLOPE 6.72, FFLUC_R_SQUARED 0.191, read-out: LUCIFERASE INFECTION ASSAY - IC50): > 11.1 µM |
| CNC(=O)c1ccc(CN(Cc2ccco2)C(=O)Cc2ccc(-c3ccccc3)cc2)cc1 | > 10 µM | IC50 (FFLUC_HILL_SLOPE 7.09, FFLUC_R_SQUARED 0.0104, PBLUC_HILL_SLOPE 1.93, PBLUC_R_SQUARED 0.808, read-out: LUCIFERASE INFECTION ASSAY - IC50): 3.68 µM |
| CC(=O)c1ccc(NC(=O)N2[C@@H]3CC[C@@H](C3)[C@H]2c2nc3cccc(OCc4ccc(F)cc4)c3[nH]2)cc1 | > 10 µM | IC50 (FFLUC_HILL_SLOPE 7.32, FFLUC_R_SQUARED 0.306, PBLUC_HILL_SLOPE 12.2, PBLUC_R_SQUARED 0.357, read-out: LUCIFERASE INFECTION ASSAY - IC50): 9.72 µM |
| O=C(Nc1ncccc1O)c1ccc(N2CCOCC2)nc1 | 4.08 µM | IC50 (FFLUC_HILL_SLOPE 6.17, FFLUC_R_SQUARED 0.111, PBLUC_HILL_SLOPE 1.25, PBLUC_R_SQUARED 0.907, read-out: LUCIFERASE INFECTION ASSAY - IC50): 0.705 µM |
| Cc1cccc(C)c1N(C(=O)CC(c1ccccc1)c1ccccc1)c1nc2ccccc2s1 | > 10 µM | IC50 (FFLUC_HILL_SLOPE 6.55, FFLUC_R_SQUARED 0.86, PBLUC_HILL_SLOPE 3.66, PBLUC_R_SQUARED 0.235, read-out: LUCIFERASE INFECTION ASSAY - IC50): 7.33 µM |
| COc1ccc(C(=O)/C(=C\c2ccc([N+](=O)[O-])cc2)c2nc3ccccc3[nH]2)cc1 | 9.32 µM | IC50 (FFLUC_HILL_SLOPE 7.19, FFLUC_R_SQUARED 0.76, HEPG2TOX_HILL_SLOPE 6.54, HEPG2TOX_R_SQUARED 0.945, PBLUC_HILL_SLOPE 13.7, PBLUC_R_SQUARED 0.214, read-out: LUCIFERASE INFECTION ASSAY - IC50): 7.93 µM |
| CC(Nc1ccc(Oc2ccc(Br)cc2)cc1)C(=O)Nc1ccc(S(N)(=O)=O)cc1 (configuration not stated) | > 10 µM | IC50 (FFLUC_HILL_SLOPE 6.08, FFLUC_R_SQUARED 0.0812, PBLUC_HILL_SLOPE 2.58, PBLUC_R_SQUARED 0.863, read-out: LUCIFERASE INFECTION ASSAY - IC50): 4.82 µM |
| CN(C)c1ccc(-c2cnc3cnc(-c4cnn(Cc5ccccc5)c4)cn23)cc1 | > 8.37 µM | IC50 (FFLUC_HILL_SLOPE 6.21, FFLUC_R_SQUARED 0.0566, PBLUC_HILL_SLOPE 1.47, PBLUC_R_SQUARED 0.566, read-out: LUCIFERASE INFECTION ASSAY - IC50): 3.91 µM |
| COc1ccc(NS(=O)(=O)c2cccc(C(=O)N/N=C(\c3ccccc3)c3ccccn3)c2)cc1 | 6.62 µM | IC50 (FFLUC_HILL_SLOPE 6.58, FFLUC_R_SQUARED 0.0766, HEPG2TOX_HILL_SLOPE 0.953, HEPG2TOX_R_SQUARED 0.956, PBLUC_HILL_SLOPE 1.34, PBLUC_R_SQUARED 0.562, read-out: LUCIFERASE INFECTION ASSAY - IC50): 1.29 µM |
| O=C(Nc1ccccc1)c1ccc(CN2C(=O)NC(c3ccccc3)(c3ccccc3)C2=O)cc1 | 3.94 µM | IC50 (FFLUC_HILL_SLOPE 6.57, FFLUC_R_SQUARED 0.404, PBLUC_HILL_SLOPE 14.6, PBLUC_R_SQUARED 0.481, read-out: LUCIFERASE INFECTION ASSAY - IC50): 3.39 µM |
| C#CCSc1nc2ccc(Cl)cc2c(=O)n1-c1cc(OC(C)C)c(Cl)cc1Cl | > 7.27 µM | IC50 (FFLUC_HILL_SLOPE 5.89, FFLUC_R_SQUARED 0.859, HEPG2TOX_HILL_SLOPE 0.407, HEPG2TOX_R_SQUARED 0.572, PBLUC_HILL_SLOPE 3.96, PBLUC_R_SQUARED 0.341, read-out: LUCIFERASE INFECTION ASSAY - IC50): 5.27 µM |
| CC(=O)N1CCN(c2nc(CC(C)C)c3c(c2C#N)CCCC3)CC1 | > 9.69 µM | IC50 (FFLUC_HILL_SLOPE 6.37, FFLUC_R_SQUARED 0.032, PBLUC_HILL_SLOPE 12.2, PBLUC_R_SQUARED 0.0332, read-out: LUCIFERASE INFECTION ASSAY - IC50): 8.99 µM |
| Cc1[nH]ncc1CCCNc1nc(C(F)(F)F)nc2ccccc12 | > 10 µM | IC50 (FFLUC_HILL_SLOPE 6.95, FFLUC_R_SQUARED 0.127, read-out: LUCIFERASE INFECTION ASSAY - IC50): > 10 µM |
| COc1ccc(S(=O)(=O)Nc2ccc3c(c2)CS(=O)(=O)C3)cc1 | > 9.34 µM | IC50 (FFLUC_HILL_SLOPE 6.24, FFLUC_R_SQUARED 0.631, read-out: LUCIFERASE INFECTION ASSAY - IC50): > 9.34 µM |

| Compound | IC90 | other results |
| --- | --- | --- |
| CC(C)n1c(Sc2ncc([N+](=O)[O-])s2)nc2ccccc21 | 4.36 µM | IC50 (FFLUC_HILL_SLOPE 5.73, FFLUC_R_SQUARED 0.583, HEPG2TOX_HILL_SLOPE 3.25, HEPG2TOX_R_SQUARED 0.992, PBLUC_HILL_SLOPE 9.74, PBLUC_R_SQUARED 0.283, read-out: LUCIFERASE INFECTION ASSAY - IC50): 3.48 µM |
| O=C(COC(=O)/C=C/c1ccc(I)o1)Nc1cc(S(=O)(=O)N2CCCCC2)ccc1Cl | > 10 µM | IC50 (FFLUC_HILL_SLOPE 7.36, FFLUC_R_SQUARED 0.327, read-out: LUCIFERASE INFECTION ASSAY - IC50): > 10 µM |
| CCOC(=O)N1C/C(=C/c2cccc(O)c2)C(=O)/C(=C/c2cccc(O)c2)C1 | 9.23 µM | IC50 (FFLUC_HILL_SLOPE 6.86, FFLUC_R_SQUARED 0.64, HEPG2TOX_HILL_SLOPE 2, HEPG2TOX_R_SQUARED 0.958, PBLUC_HILL_SLOPE 1.44, PBLUC_R_SQUARED 0.817, read-out: LUCIFERASE INFECTION ASSAY - IC50): 2.02 µM |
| FC(F)(F)c1cccc(Nc2nccc3nc(-c4ccccc4Cl)[nH]c23)c1 | > 10 µM | IC50 (FFLUC_HILL_SLOPE 7.35, FFLUC_R_SQUARED 0.132, HEPG2TOX_HILL_SLOPE 0.352, HEPG2TOX_R_SQUARED 0.695, PBLUC_HILL_SLOPE 1.25, PBLUC_R_SQUARED 0.396, read-out: LUCIFERASE INFECTION ASSAY - IC50): 3.07 µM |
| Cc1ccccc1CN1CCN2C=C(C(=O)Nc3cccc(OC(F)(F)F)c3)OC2=NC1=O | > 10 µM | IC50 (FFLUC_HILL_SLOPE 6.71, FFLUC_R_SQUARED 0.0114, read-out: LUCIFERASE INFECTION ASSAY - IC50): > 10 µM |
| CCc1nc(SCC(=O)Nc2nsc(-c3ccc(C(C)(C)C)cc3)n2)c2c3c(sc2n1)CCC3 | > 10 µM | IC50 (FFLUC_HILL_SLOPE 7.48, FFLUC_R_SQUARED 0.446, read-out: LUCIFERASE INFECTION ASSAY - IC50): > 10 µM |
| CSc1nccc(-c2ccc(Cl)cc2)n1 | > 13.9 µM | IC50 (FFLUC_HILL_SLOPE 5.64, FFLUC_R_SQUARED 0.137, read-out: LUCIFERASE INFECTION ASSAY - IC50): > 13.9 µM |
| Cc1cccc(CNc2nc3cnc(Nc4cccc(O)c4)cc3n2C)c1 | > 10 µM | IC50 (FFLUC_HILL_SLOPE 6.96, FFLUC_R_SQUARED 0.0526, HEPG2TOX_HILL_SLOPE 13.6, HEPG2TOX_R_SQUARED 0.973, PBLUC_HILL_SLOPE 10.5, PBLUC_R_SQUARED 0.188, read-out: LUCIFERASE INFECTION ASSAY - IC50): 8.85 µM |
| CC(C)c1ccc(-c2cnc3sc(NCc4ccncc4)nn23)cc1 | > 9.44 µM | IC50 (FFLUC_HILL_SLOPE 6.11, FFLUC_R_SQUARED 0.0312, HEPG2TOX_HILL_SLOPE 0.148, HEPG2TOX_R_SQUARED 0.0475, read-out: LUCIFERASE INFECTION ASSAY - IC50): > 9.44 µM |
| COC(=O)c1sc(SCCOC(=O)Nc2ccc(OC(F)(F)F)cc2)c2c1CC(C)(C)CC2=O | > 6.38 µM | IC50 (FFLUC_HILL_SLOPE 7.12, FFLUC_R_SQUARED 0.0522, read-out: LUCIFERASE INFECTION ASSAY - IC50): > 6.38 µM |
| Cc1ccnc(SCc2cc(=O)n3nc(C)c(-c4ccc(F)cc4)c3[nH]2)n1 | > 8.65 µM | IC50 (FFLUC_HILL_SLOPE 7.05, FFLUC_R_SQUARED 0.398, PBLUC_HILL_SLOPE 2.1, PBLUC_R_SQUARED 0.785, read-out: LUCIFERASE INFECTION ASSAY - IC50): > 8.65 µM |
| OC1CCC(Nc2nn3c(-c4cccc(OC(F)(F)F)c4)cnc3s2)CC1 (configuration not stated) | > 8.28 µM | IC50 (FFLUC_HILL_SLOPE 6.8, FFLUC_R_SQUARED 0.0322, read-out: LUCIFERASE INFECTION ASSAY - IC50): > 8.28 µM |
| CCC(CNC(=O)NCC(=O)Nc1cc(Cl)ccc1Cl)c1ccccc1 (configuration not stated) | > 10 µM | IC50 (FFLUC_HILL_SLOPE 6.98, FFLUC_R_SQUARED 0.07, read-out: LUCIFERASE INFECTION ASSAY - IC50): > 10 µM |
| COC(=O)c1ccccc1SCC(C)=O | > 14.7 µM | IC50 (FFLUC_HILL_SLOPE 5.95, FFLUC_R_SQUARED 0.0707, PBLUC_HILL_SLOPE 4.71, PBLUC_R_SQUARED 0.0859, read-out: LUCIFERASE INFECTION ASSAY - IC50): 14 µM |
| Cc1cc(OCCN(C)C)cc2c1C1CCC3(C)C(=O)CCC3C1C=C2 (configuration not stated) | > 9.34 µM | IC50 (FFLUC_HILL_SLOPE 6.52, FFLUC_R_SQUARED 0.182, PBLUC_HILL_SLOPE 2.32, PBLUC_R_SQUARED 0.511, read-out: LUCIFERASE INFECTION ASSAY - IC50): 5.67 µM |
